Positions count from the first letter of the chain named. Names may count otherwise. “Also recorded” adds a separate entry of the source.
Experiments:
hemophilia A mice = assay: direct immunization of hemophilia A mice with peptides containing a CD1d motif; type: in vivo; details: direct immunization with peptide
Description: Hemophilia A mice were immunized 3 times subcutaneously with 50 μg of an equimolar mixture of peptides of SEQ ID1 (44pept) and peptide of SEQ ID2 (256pept) adsorbed on aluminum hydroxyde. A control group received physiological serum instead of peptides. Plasma was taken 10 days after the last immunization and assessed for the presence of anti-Factor VIII antibodies, using a direct binding assay. Briefly, Factor VIII (10 IU/ml) was insolubilized on polystyrene plates, which were washed and incubated with a 1/10 dilution of plasma. After a further washing, a HRP-labeled goat anti-mouse antiserum was added, followed by an enzyme substrate. Colour development was read as OD.

NKT cells [1] = assay: CD1d tetramers loaded with FVIII peptides incubated with spleen CD4+ T cells of FVIII-immunized hemophilia A mice, Facs; type: cell-based; details: for binding of CD1d tetramers loaded with peptide: spleen CD4+ T cells of hemophilia A mice injected IV with FVIII 2 IU on 4 occasions, 15 aminoacid long peptides
Description: To determine whether these sequences could activate NKT cells in vivo, FVIII (2 IU) was injected intravenously to hemophilia A mice on 4 occasions separated by a 1-week interval. Hemophilia A mice produce no FVIII due to a stop codon introduced in the FVIII gene in exon 16.
Mice were sacrificed 10 days after the last injection, the spleen was removed and CD4+ T cells were prepared by magnetic bead sorting. NKT cells are characterized by expression of CD4 and recognition of antigen presented by CD1d molecule. A tetramer of CD1d was obtained from a commercial supplier and loaded with 15 aminoacid long FVIII peptides, which included peptides containing SEQ ID1, SEQ ID2 and SEQ ID3.
Hemophilia A mice were immunized with 2 IU Factor VIII on 4 occasions separated by one week. The spleen was then removed and CD4+ T cells were prepared by magnetic bead sorting. A fluorochrome-labeled tetramer of CD1d was obtained from a commercial supplier and loaded with 15 aminoacid long FVIII peptides, which included peptides containing SEQ ID1, ID2 and ID3. Loading was carried out at room temperature overnight in the dark.
Tetramers were then incubated for 30 minutes at 4° C. with the CD4+ T cell population and the cell suspension was analyzed by Facs.

NKT cells [2] = assay: human CD1d tetramers loaded with peptides, recognition by NKT cells; type: cell-based; details: Mal d 1 peptides
Description: (§1) Synthetic peptides corresponding to SEQ ID9 and SEQ ID10 were produced. Their capacity to activate NKT cells was determined in vitro using human dendritic cells derived from peripheral blood monocytes of an individual sensitized to Mal d 1. Dendritic cells loaded with each one of the two peptides were incubated in the presence of NKT cells obtained from the same individual by sorting peripheral lymphocytes using specific markers such as CD4 and NKG2D.
(§2) As for Mal d 1, human CD1d tetramers loaded with a synthetic peptide representing the motif identified in the polypeptide of […]

NKT cells [3] = assay: activation of NKT cells in vitro by human dendritic cells loaded with peptide or polypeptide; type: cell-based
Description: as §1, §2

NKT cells [4] = assay: human CD1d tetramers loaded with IgG peptides, peripheral blood CD4+ T cells of patients given a therapeutic antibody (facs); type: cell-based; details: patients injected with a therapeutic antibody during the previous 5 days
Description: Synthetic peptides corresponding to SEQ ID18, SEQ ID19 and SEQ ID20 were produced and used to load human CD1d tetramers as for the examples above (see for instance example 4 for allergen Der p 1). Peripheral blood cells were obtained by venous puncture of patients who had received an injection of a therapeutic antibody during the previous 5 days. CD4+ T cells were purified by magnetic bead sorting. The cells were then incubated with tetramers loaded with peptides of SEQ ID18, SEQ ID19 or SEQ ID20. Analysis by facs identifies a significant proportion of NKT cells (±10%) labeled by tetramers.

CD4+ NKT cells = assay: intranasal Der p 1 in BALB/c mice, spleen CD4+ T cells stained with peptide-loaded CD1d tetramers (facs); type: in vivo; details: for percentage of CD4+ T cells stained with CD1d tetramers loaded with peptide: mice given natural sequence Der p 1 intranasally, 100 μg
Description: Peptides of SEQ ID13, SEQ ID14 and SEQ ID15 were synthesized and used to load CD1d tetramers.
BALB/c mice were submitted to intranasal administration of Der p 1, using 50 μl of saline containing 100 μg of Der p 1. This challenge procedure was repeated twice on three consecutive days at one-week interval. The mice were sacrificed 5 days after the last nasal instillation and the spleen was removed. CD4+ T cells were purified by magnetic bead sorting and incubated in the presence of the CD1d tetramers loaded with peptides of SEQ ID13, SEQ ID14 or SEQ ID15. By fluorescence-activated cell sorter (facs) determination, it was observed that a significant percentage of cells (±10%) were stained with the tetramers, identifying them as CD4+ NKT cells. It was therefore concluded that peptides of SEQ ID13, SEQ ID14 and SEQ ID15 were functional in binding to CD1d and in being recognized by NKT cells.
Next, a mutated form of Der p 1 was prepared by genetic engineering, in which the 3 aminoacid residues predicted to be in position P1 for CD binding of peptides of SEQ ID13, SEQ ID14 and SEQ ID15 were substituted by serine. The mutated Der p 1 (SEQ ID16) was used for nasal instillation as described above with Der p 1 in natural sequence (SEQ ID17).

NKT cells [5] = assay: JAWS2 cells loaded with Der p 1, production of IFN-gamma and IL-4 as markers of NKT activation; type: cell-based; details: JAWS2 cells loaded with the protein; cells from mice immunized with natural sequence Der p 1
Description: CD4+ T cells obtained from the above experiments were incubated in culture medium in the presence of an antigen-presenting cell which expresses the CD1d molecule. […] JAWS2 cells were loaded with Der p 1 and presentation of Der p 1-derived epitopes by CD1d was evaluated by measuring the production of cytokines such as IFN-gamma and IL-4 as markers of NKT activation.
Further, mutated Der p 1 (SEQ ID16) was used to load JAWS2 cells and tested for its capacity to activate NKT cells. For this experiment, NKT cells were used as obtained from mice immunized with Der p 1 in either natural or mutated configuration. The production of IFN-gamma and IL-4 was taken as an indication of NKT activation.

[6] = dendritic cells and NKT cells of an individual sensitized to Mal d 1
[7] = alpha-gliadin polypeptide presented by antigen-presenting dendritic cells, same procedure as for Mal d 1

For “FCHISSH (listed as Homo sapiens) [SEQ ID1, FVIII A1 domain aminoacids 309-315 CD1d motif; tested as 15 aminoacid long FVIII peptide containing it]”, the “activation of NKT cells” value (hemophilia A mice) was “sufficient as to elicit the activation of NKT cells; also recorded: Prominent activation”, the “% of NKT cells recognizing peptide-loaded CD1d tetramers” value (NKT cells [1]; FIG. 1, CD4+ T cells of hemophilia A mice immunized with Factor VIII) was “Up to 45%” and the “binding of CD1d tetramers loaded with peptide” value (NKT cells [1]) was “Significant binding”.

With “FHAINGY [SEQ ID3, FVIII A3 domain aminoacids 1918-1924 CD1d motif; tested as 15 aminoacid long FVIII peptide containing it]” the “activation of NKT cells” value (hemophilia A mice) was “sufficient as to elicit the activation of NKT cells” and the “binding of CD1d tetramers loaded with peptide” value (NKT cells [1]) was “Significant binding”.

For “FKLIESY (listed as Malus domestica) [SEQ ID9, synthetic peptide, aminoacids 144-150 of Mal d 1]”, the “recognition of peptide-loaded human CD1d tetramers by NKT cells” value (NKT cells [2]) was “recognized by a significant proportion of NKT cells” and the “activation of NKT cells” value (NKT cells [3]; [6]) was “activated a significant proportion of NKT cells”.

For “FRVVSVL (listed as Homo sapiens) [SEQ ID19, CH2 of IgG2 and IgG3]”, the “proportion of NKT cells labeled by tetramers” value (shortened to “proportion … by tetramers”) (NKT cells [4]) was roughly 10%.

With “FSGVAAT (listed as Dermatophagoides pteronyssinus) [SEQ ID13, aminoacids 38-44 of Der p 1]” the “percentage of CD4+ T cells stained with CD1d tetramers loaded with peptide” value (“percentage of CD4+ T cells stained” for short) (CD4+ NKT cells) was roughly 10%.

“FWKVQHH (listed as Homo sapiens) [SEQ ID2, FVIII A3 domain aminoacids 1816-1822 CD1d motif; tested as 15 aminoacid long FVIII peptide containing it]” was tested, and the “activation of NKT cells” value (hemophilia A mice) was “sufficient as to elicit the activation of NKT cells” and the “binding of CD1d tetramers loaded with peptide” value (NKT cells [1]) was “Significant binding”.

With “HEALHNH (listed as Homo sapiens) [SEQ ID20, CH3 loop of IgG1, IgG2 and IgG4]” the “proportion … by tetramers” value (NKT cells [4]) was roughly 10%.

With “HSAIAAVI (listed as Dermatophagoides pteronyssinus) [SEQ ID14, aminoacids 135-141 of Der p 1]” the “percentage of CD4+ T cells stained” value (CD4+ NKT cells) was roughly 10%.

With “SKLIESS (listed as Malus domestica) [SEQ ID10, synthetic peptide of Mal d 1 motif with F144S and Y150S mutations]” the “proportion of NKT cells recognizing peptide-loaded human CD1d tetramers” value (NKT cells [2]) was “less than 1%” and the “activation of NKT cells” value (NKT cells [3]; [6]) was “did not”.

With “YPYVVIL (listed as Dermatophagoides pteronyssinus) [SEQ ID15, aminoacids 216-222 of Der p 1]” the “percentage of CD4+ T cells stained” value (CD4+ NKT cells) was roughly 10%.

With “YRVVSVL (listed as Homo sapiens) [SEQ ID18, CH2 of IgG1 and IgG4]” the “proportion … by tetramers” value (NKT cells [4]) was roughly 10%.

B1: SEQ ID11: alpha-gliadin polypeptide, natural sequence with CD1d binding motif (protein, listed as Homo sapiens)
chain: MVRVPVPQLQPQNPSQQQPQEQVPLVQQQQFPGQQQPFPPQQPYPQPQPFPSQQPYLQLQPFPQPQLPYPQPQLPYPQPQLPYPQPQPFRPQQPYPQSQPQYSQPQQPISQQQQQQQQQQQQKQQQQQQQQILQQILQQQLIPCRDVVLQQHSIAYGSSQVLQQSTYQLVQQLCCQQLWQIPEQSRCQAIHNVVHAIILHQQQQQQQQQQQQPLSQVSFQQPQQQYPSGQGSFQPSQQNPQAQGSVQPQQLPQFEEIRNLALETLPAMCNVYIPPYCTIAPVGIFGTNYR
In the case of B1, the “activation of NKT cells” value (NKT cells [3]; [7]) is reported as “activated a significant proportion of NKT cells”.

B2: SEQ ID12: mutated form of alpha-gliadin in which the F residue of the motif was substituted by S (protein, listed as Homo sapiens)
chain: B1 chain with Y56S, Y167S, H191S, F254S, Y276S
B2 was tested, and the “activation of NKT cells” value (NKT cells [3]; [7]) was “failed to do so”.

B3: Der p 1: cysteine protease, main allergen of house dust mite D. pteronyssinus, natural sequence (protein, listed as Dermatophagoides pteronyssinus)
chain: ETNACSINGNAPAEIDLRQMRTVTPIRMQGGCGSCWAFSGVAATESAYLAYRNQSLDLAEQELVDCASQHGCHGDTIPRGIEYIQHNGVVQESYYRYVAREQSCRRPNAQRFGISNYCQIYPPNVNKIREALAQTHSAIAVIIGIKDLDAFRHYDGRTIIQRDNGYQPNYHAVNIVGYSNAQGVDYWIVRNSWDTNWGDNGYGYFAANIDLMMIEEYPYVVIL
B3 was tested, and the “NKT activation (production of IFN-gamma and IL-4)” value (NKT cells [5]) was “significant production of cytokines”.

B4: SEQ ID16: mature Der p 1 with P1 anchoring residues F38S, H135S and Y216S mutated (protein, listed as Dermatophagoides pteronyssinus)
chain: B3 chain with F38S, H136S, Y217S
B4 was tested, and the “NKT activation (production of IFN-gamma and IL-4)” value (NKT cells [5]) was “failed to be activated” and the “binding of CD4+ T cell splenocytes to tetramers loaded with peptide of SEQ ID13, SEQ ID14 or SEQ ID15” value (CD4+ NKT cells; mice given the protein by nasal instillation) was “no significant binding”.
